# Experimental data as given in patent publication US20240148831A1, “COMBINATION TREATMENTS FOR CHOLESTASIS” (THE BOARD OF REGENTS OF THE UNIVERSITY OF OKLAHOMA, priority 2022, published 2024).
# Key:
# Type in all cases: in vivo
# Cyp2c70 KO mice [1] = experiment: Bile acid metabolism (fecal total bile acids, bile acid pool, gallbladder bile acid composition, liver CYP7A1/CYP8B1 mRNA) in Cyp2c70 KO mice
# From the text: (§1) The Cyp2c70 KO mice with Exon 4 deletion were generated by CRISPR/Cas-mediated genome engineering. Cas9 and gRNA (gRNA1 matching reverse strand of the Cyp2c70 gene: […] (SEQ ID NO:1); gRNA2 matching forward strand of the Cyp2c70 gene: […] (SEQ ID NO:2)) were co-injected into fertilized eggs of C57BL/6J mice. One F0 male founder mouse was identified by PCR followed by sequencing analysis to confirm deletion of an 888 bp genome region containing the entire Exon 4. This F0 founder was bred to a WT C57BL/6J mouse to obtain 3 F1 Cyp2c70+/−females confirming germline transmission. Further breeding of the F1 females with WT C57BL/6J mice (the Jackson Lab, Bar Harbor, ME) yielded WT mice and Cyp2c70+/−mice. Subsequent breeding of the Cyp2c70+/−offspring yielded WT mice and Cyp2c70−/− mice (Cyp2c70 KO). The Cyp2c70 KO mice were then bred via KO×KO breeding scheme. The WT littermates were used to generate WT mice via WT×WT breeding scheme. […] Mice were housed in micro-isolator cages with Biofresh performance bedding (Pelleted cellulose) under 7 AM-7 PM light cycle and 7 PM-7 AM dark cycle. GSK was mixed with chow diet to achieve an estimated 5 mg/kg/day intake based on 5 g/day food intake by a 25 g mouse. AAV-Null or AAV-FGF15 was injected via tail vein at a dose of 1×10^11 GC/mouse. Mice were euthanized following a 6 h fast from 9 am to 3 pm. Animals received humane care according to the criteria outlined in the “Guide for the Care and Use of Laboratory Animals.” All animal protocols were approved by the Institutional Animal Care and Use Committee of the University of Oklahoma Health Sciences Center.
# (§2) Bile acids were extracted from liver, whole gallbladder bile, whole small intestine with content, and dried feces in 90% ethanol. To collect fecal sample, an individual mouse was placed in a jar briefly and fresh feces were collected. Total bile acid amount was measured by a bile acid assay kit. Bile acid pool was calculated as the total bile acids in liver, gallbladder and small intestine. Bile acid composition in the gallbladder bile and the pooled fecal extracts was analyzed on a Thermo Scientific UltiMate 3000 UHPLC with a Waters Cortecs C18 column and a TSQ Quantis triple quadrupole mass spectrometer. Standard curves for bile acids and internal standard glycine-CDCA-d4 were generated with purified compounds and relative area under the curve (AUC) was calculated. To measure T-CDCA-d4 metabolism in fecal slurry mixtures, pooled fresh fecal sample from each group was resuspended in a reaction buffer consisting of 10% PBS (pH=7.4) and 90% 3 mM sodium acetate (pH=5.2) to a final suspension of 4 mg fecal sample/ml. T-CDCA-d4 was added to a final concentration of 20 ug/ml and the mixture was incubated at 37° C. for 6 h. An equal amount of methanol was added and the mixture was incubated on ice for 1 h to precipitate protein. After centrifugation, an aliquot of the supernatant was vacuum dried and resuspended in injection buffer (0.1% formic acid, 30% acetonitrile, 70% HPLC water), which was used for LC-MS measurement of bile acids as described above.
# Total liver RNA was purified with Trizol (Sigma-Aldrich, St. Louis, MO). Reverse transcription was performed by using Oligo dT primer and SuperScript III reverse transcriptase (ThermoFisher Scientific, Grand Island, NY). Real-time PCR was performed on a Bio-Rad CFX384 Real-time PCR system with iQ SYBR Green Supermix (Bio-Rad, Hercules, CA). 18S was measured and used for normalization. The comparative CT (Ct) method was used to determine the relative mRNA expression with the control group arbitrarily set as “1”.
# Cyp2c70 KO mice [2] = experiment: Gut barrier integrity (colon H&E and ZO-1 immunohistochemistry) in Cyp2c70 KO mice; settings: 4 weeks
# From the text: as §1
# Liver tissues and colon tissues were fixed in 4% paraformaldehyde and paraffin embedded. Hematoxylin and Eosin (H&E) staining was performed with an automated stainer. Sirius Red staining was performed with Direct Red 80 solution (Sigma #365548, St. Louis, MO). […]
# Cyp2c70 KO mice [3] = experiment: Fecal bile acid composition and concentration by LC-MS in Cyp2c70 KO mice; settings: 4 weeks
# From the text: as §1, §2
# Cyp2c70 KO mice [4] = experiment: Liver histopathology, serum transaminases and liver mRNA markers after 4 weeks of treatment in Cyp2c70 KO mice; settings: female Cyp2c70 KO mice
# From the text: as §1
# Liver tissues and colon tissues were fixed in 4% paraformaldehyde and paraffin embedded. Hematoxylin and Eosin (H&E) staining was performed with an automated stainer. Sirius Red staining was performed with Direct Red 80 solution (Sigma #365548, St. Louis, MO). For immunohistochemistry, paraffin embedded tissues were deparaffinized and rehydrated, and after antigen retrieval, […] sections were incubated first with blocking buffer (5% BSA and 5% goat serum in PBS) for 1 h and then blocking buffer containing primary antibodies overnight at 4° C. After washing with PBS, the sections were incubated with secondary antibodies in SignalStain® Boost IHC Detection Reagent (Cell Signaling, #8114, Danvers, MA) for 1 h. Signal was then visualized using a DAB kit (Cell Signaling, #11724, Danvers, MA). The sections were counterstained with Hematoxylin. Images are acquired by using an EVOS M5000 imaging system (ThermoFisher Scientific, Grand Island, NY).
# Total liver RNA was purified with Trizol (Sigma-Aldrich, St. Louis, MO). […] 18S was measured and used for normalization. […]
# [5] = female Cyp2c70 KO mice, vs untreated mice
smiles,measurement,setting,value
"CCCC[C@]1(CC)CS(=O)(=O)c2cc(CNC(CC(=O)O)CC(=O)O)c(OC)cc2[C@@H](c2ccccc2)N1 [GSK, GSK2330672]",hepatic CYP8B1 expression,"Cyp2c70 KO mice [1]; female Cyp2c70 KO mice, 4 weeks",markedly increased
same,gallbladder T-CDCA abundance,"Cyp2c70 KO mice [1]; female Cyp2c70 KO mice, 4 weeks, untreated printed as −70%",~40%
same,gallbladder T-DCA abundance,"Cyp2c70 KO mice [1]; female Cyp2c70 KO mice, 4 weeks, untreated ~1%",~30%
same,gallbladder T-CA abundance,"Cyp2c70 KO mice [1]; female Cyp2c70 KO mice, 4 weeks, vs untreated",without affecting
same,increase of fecal bile acid loss (excretion),"Cyp2c70 KO mice [1]; female Cyp2c70 KO mice, after 2 weeks treatment",~2 fold
same,reduction of total bile acid pool,"Cyp2c70 KO mice [1]; female Cyp2c70 KO mice, after 4 weeks of treatment",~40%
same,gallbladder T-DCA abundance,"Cyp2c70 KO mice [1]; male Cyp2c70 KO mice, 4 weeks",increasing
same,liver CYP7A1 mRNA expression,"Cyp2c70 KO mice [1]; male Cyp2c70 KO mice, 4 weeks",induction
same,liver CYP8B1 mRNA expression,"Cyp2c70 KO mice [1]; male Cyp2c70 KO mice, 4 weeks",induction
same,fecal bile acid excretion,"Cyp2c70 KO mice [1]; male Cyp2c70 KO mice, after 2 weeks of treatment",increased
same,reduction of bile acid pool size,"Cyp2c70 KO mice [1]; male Cyp2c70 KO mice, after 4 weeks of treatment",~60%
same,colon ZO-1 level (immunohistochemistry),Cyp2c70 KO mice [2]; female Cyp2c70 KO mice,failed to restore
same,colon ZO-1 level (immunohistochemistry),Cyp2c70 KO mice [2]; male Cyp2c70 KO mice,failed to restore
same,histological features of the colon epithelium (H&E),Cyp2c70 KO mice [2]; male and female Cyp2c70 KO mice,did not reveal abnormal histological features
same,fecal DCA abundance (relative),Cyp2c70 KO mice [3]; female Cyp2c70 KO mice,increased
same,fecal LCA abundance (relative),"Cyp2c70 KO mice [3]; female Cyp2c70 KO mice, untreated ~90% LCA",slightly reduced
same,fecal DCA amount (absolute),Cyp2c70 KO mice [3]; [5],higher
same,fecal LCA amount (absolute),Cyp2c70 KO mice [3]; [5],higher
same,fecal DCA amount,Cyp2c70 KO mice [3]; male Cyp2c70 KO mice,increased
same,fecal LCA amount,Cyp2c70 KO mice [3]; male Cyp2c70 KO mice,did not increase
same,reduction of liver p21 mRNA,Cyp2c70 KO mice [4]; 4 weeks of treatment,did not affect
same,"serum transaminases (ALT, AST)",Cyp2c70 KO mice [4]; 4 weeks of treatment,not altered
same,portal inflammation (inflammatory infiltration) and ductular reaction,"Cyp2c70 KO mice [4]; 4 weeks of treatment from 12 weeks of age, F4/80, CK19, H&E stain",largely ineffective
same,portal fibrosis,"Cyp2c70 KO mice [4]; 4 weeks of treatment, Sirius Red stain",largely ineffective
